For 19 compounds, TGI and GI50 results are on record in PubChem BioAssay (NCI).

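Protocol summary: plate cells (96-well), add compound at 5 concentrations, incubate 48 h, interpolate endpoints linearly. Here, GI50 denotes the concentration required for 50% inhibition of growth. TGI: concentration producing complete growth inhibition.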

Test systems include SK-OV-3 ovarian; K-562 leukemia; NCI-H522 lung; SF-295 CNS; SK-MEL-5 melanoma; MOLT-4 leukemia; OVCAR-3 ovarian; HCT-15 colon; SR leukemia; SNB-19 CNS; KM12 colon; HCC-2998 colon; EKVX NSCLC.
Common to all, as to test: NCI-60 cell line screen, 48 h

Consider `O=C(CC(Cl)=C(Cl)Cl)c1ccccc1`, for which the TGI in the assay with SK-OV-3 ovarian was over 100 µM; with K-562 leukemia it was 50 µM; with NCI-H522 lung it was 69.6 µM; with SF-295 CNS, over 100 µM; in the assay with SK-MEL-5 melanoma it was over 100 µM; with MOLT-4 leukemia, 28.6 µM. The TGI was 81.4 µM in the assay with OVCAR-3 ovarian; 70.6 µM in the assay with HCT-15 colon; 43.7 µM in the assay on SR leukemia; over 100 µM with SNB-19 CNS; over 100 µM in the assay with KM12 colon.

For the compound `C[C@@H]1CC[C@@]2(OC1)O[C@H]1C[C@H]3[C@@H]4CC[C@H]5C[C@@H](OC6OC(CO)C(OC7OC(CO)C(O)C(OC8OCC(O)C(O)C8O)C7OC7OC(CO)C(O)C(O)C7O)C(O)C6O)[C@H](O)C[C@]5(C)[C@H]4CC[C@]3(C)[C@H]1[C@@H]2C` (stereo partly drawn), the TGI is 29.8 µM in the assay with SK-OV-3 ovarian; over 100 µM in the assay with K-562 leukemia; 2.05 µM in the assay on NCI-H522 lung; 13.4 µM with SF-295 CNS; 45.8 µM in the assay with SK-MEL-5 melanoma; 24.7 µM in the assay with HCC-2998 colon. Moreover, the TGI with EKVX NSCLC is 21 µM; with MOLT-4 leukemia, 31.1 µM; with OVCAR-3 ovarian, 9.56 µM; with HCT-15 colon, over 33.9 µM; in the assay with SR leukemia it was over 33.8 µM; in the assay with SNB-19 CNS it was 27.1 µM. Moreover, the TGI with KM12 colon came to 23.6 µM.

With `O=C(O)C1CCCCN1c1ccccc1[N+](=O)[O-]` (stereo not drawn), the TGI with SK-OV-3 ovarian, in the assay with K-562 leukemia, with NCI-H522 lung, with SF-295 CNS, with SK-MEL-5 melanoma and in the assay on HCC-2998 colon was over 100 µM throughout. For the same compound, the TGI with EKVX NSCLC, in the assay on MOLT-4 leukemia, in the assay with OVCAR-3 ovarian, in the assay with HCT-15 colon, with SR leukemia and in the assay on SNB-19 CNS was over 100 µM each time.

Consider `O=c1oc2cc(O)ccc2c(O)c1Cc1c(O)c2ccc(O)cc2oc1=O`, for which the TGI in the assay on SK-OV-3 ovarian, in the assay with K-562 leukemia, in the assay on SF-295 CNS, with SK-MEL-5 melanoma, with HCC-2998 colon and with EKVX NSCLC was over 100 µM in each case. In addition, the TGI in the assay with MOLT-4 leukemia, in the assay on OVCAR-3 ovarian, in the assay with HCT-15 colon, in the assay with SR leukemia and in the assay on SNB-19 CNS was over 100 µM each time.

On to `CN(Cc1cnc2c(N)nc(N)nc2n1)c1ccc(Cl)cc1`, for which the TGI with SK-OV-3 ovarian, in the assay with K-562 leukemia, with SF-295 CNS, with SK-MEL-5 melanoma, with EKVX NSCLC and in the assay on MOLT-4 leukemia was over 100 µM each time. Also, the TGI in the assay with OVCAR-3 ovarian, in the assay on HCT-15 colon, with SR leukemia, in the assay with SNB-19 CNS and in the assay with KM12 colon was over 100 µM in each case.

In the case of `BrCC[N+]12CC[N+](CCBr)(CC1)C2`, the TGI in the assay on SK-OV-3 ovarian, with K-562 leukemia, in the assay on NCI-H522 lung, with SF-295 CNS, in the assay on SK-MEL-5 melanoma and in the assay on HCC-2998 colon was over 100 µM throughout. Also, the TGI in the assay on EKVX NSCLC, in the assay on MOLT-4 leukemia, with OVCAR-3 ovarian, in the assay on HCT-15 colon, with SR leukemia and in the assay with SNB-19 CNS was over 100 µM throughout. For the same compound, the TGI in the assay with KM12 colon was over 100 µM.

For `CCn1cnnc1-c1nsc2ccccc12`, the TGI in the assay with K-562 leukemia, with SK-MEL-5 melanoma, in the assay with HCC-2998 colon, in the assay with EKVX NSCLC, with OVCAR-3 ovarian and in the assay on HCT-15 colon was over 100 µM in each case. Moreover, the TGI in the assay with SR leukemia, in the assay on SNB-19 CNS and in the assay with KM12 colon was over 100 µM in each case.

Take `O=[N+]([O-])c1ccc(NNN=Nc2ccc(-c3nc4ccccc4s3)cc2)c([N+](=O)[O-])c1`: the TGI in the assay with SK-OV-3 ovarian is over 100 µM; in the assay with K-562 leukemia, 86.2 µM; in the assay with NCI-H522 lung it was 70.9 µM; in the assay on SF-295 CNS, 42.6 µM; in the assay on SK-MEL-5 melanoma, 29.3 µM; in the assay on HCC-2998 colon it was 36.6 µM. For the same compound, the TGI with EKVX NSCLC is 44.4 µM; in the assay on MOLT-4 leukemia, 53.5 µM; in the assay with OVCAR-3 ovarian it was 46.7 µM; with HCT-15 colon, 66.4 µM; with SR leukemia, 90.1 µM; in the assay on SNB-19 CNS, over 100 µM. The compound further showed a TGI in the assay with KM12 colon of over 100 µM.

For `CC(=O)Nc1cccc(N=NN(C)C)c1`, the TGI in the assay with SK-OV-3 ovarian, with K-562 leukemia, in the assay with NCI-H522 lung, with SF-295 CNS, in the assay with SK-MEL-5 melanoma and in the assay on HCC-2998 colon was over 100 µM in each case. In addition, the TGI in the assay with EKVX NSCLC, in the assay with MOLT-4 leukemia, in the assay on OVCAR-3 ovarian, in the assay with HCT-15 colon, with SNB-19 CNS and in the assay on KM12 colon was over 100 µM each time.

`O=C(N/N=C/c1cc(Br)cc(Br)c1[O-])c1ccccc1O.O=C(N/N=C/c1cc(Br)cc(Br)c1[O-])c1ccccc1O.[Co+2]`: the TGI with SK-OV-3 ovarian turned out to be 5.57 µM; in the assay on K-562 leukemia, 16.2 µM; with NCI-H522 lung, 2.49 µM; in the assay with SF-295 CNS, 12.6 µM; in the assay with SK-MEL-5 melanoma, 2.96 µM; with HCC-2998 colon, 10.5 µM. Moreover, the TGI with EKVX NSCLC came to 11.3 µM; in the assay on MOLT-4 leukemia, 14.3 µM; in the assay with OVCAR-3 ovarian it was 3.6 µM; in the assay with HCT-15 colon, 14.4 µM; in the assay on SR leukemia, 3.29 µM; in the assay with SNB-19 CNS, 28.4 µM. In the assay on KM12 colon, this compound showed a TGI of 21.1 µM. Besides, the GI50 with K-562 leukemia was 0.643 µM.

As for `NS(=O)(=O)c1ccc(/C=C/c2ccc(O)cc2)cc1`, the TGI in the assay with SK-OV-3 ovarian was 59.5 µM; in the assay with K-562 leukemia, over 100 µM; in the assay with NCI-H522 lung, 50.2 µM; in the assay with SF-295 CNS, 65 µM; in the assay on SK-MEL-5 melanoma, 29 µM; in the assay on HCC-2998 colon, 40.6 µM. For the same compound, the TGI in the assay on EKVX NSCLC is 69.8 µM; in the assay on MOLT-4 leukemia it was over 100 µM; in the assay with OVCAR-3 ovarian, 54.5 µM; in the assay on HCT-15 colon, over 100 µM; with SR leukemia, 55.5 µM; with SNB-19 CNS, over 100 µM. This compound had a TGI in the assay on KM12 colon of 30 µM. Moreover, the GI50 with K-562 leukemia is 24.9 µM; in the assay with NCI-H522 lung it was 13.8 µM; with MOLT-4 leukemia, 22.6 µM; in the assay with HCT-15 colon it was 24.6 µM; with SR leukemia, 4.68 µM; in the assay with KM12 colon, 11.1 µM.

In the case of `CCC1NC(N=Nc2ccc([N+](=O)[O-])cc2)(P(=O)(OC(C)C)OC(C)C)OC1=O` (stereo not drawn), the TGI in the assay with SK-OV-3 ovarian, with K-562 leukemia, in the assay on NCI-H522 lung, with SF-295 CNS, in the assay on SK-MEL-5 melanoma and in the assay with HCC-2998 colon was over 100 µM each time. Further, the TGI in the assay on EKVX NSCLC, in the assay with MOLT-4 leukemia, in the assay with OVCAR-3 ovarian, with SR leukemia, with SNB-19 CNS and in the assay on KM12 colon was over 100 µM throughout.

Take `O=c1oc2c(Cl)cc(Cl)cc2cc1C1=CSC2=NCCN12`: the TGI is over 100 µM in the assay with SK-OV-3 ovarian; over 100 µM in the assay on K-562 leukemia; over 100 µM in the assay on SF-295 CNS; 88.8 µM in the assay on SK-MEL-5 melanoma; over 100 µM in the assay with EKVX NSCLC; over 100 µM with MOLT-4 leukemia. Further, the TGI in the assay on OVCAR-3 ovarian was 92.9 µM; with HCT-15 colon, over 100 µM; in the assay on SR leukemia it was over 100 µM; in the assay on SNB-19 CNS, over 100 µM; in the assay with KM12 colon it was over 100 µM.

With `CCOC(=O)c1nnc2c(C#N)c(-c3ccccc3)c(C)n2c1N`, the TGI is over 100 µM in the assay on SK-OV-3 ovarian; over 100 µM in the assay with K-562 leukemia; 70.5 µM with NCI-H522 lung; over 100 µM with SF-295 CNS; over 100 µM in the assay on SK-MEL-5 melanoma; over 100 µM with HCC-2998 colon. Also, the TGI in the assay on EKVX NSCLC was over 100 µM; with MOLT-4 leukemia it was over 100 µM; in the assay on OVCAR-3 ovarian, over 100 µM; with HCT-15 colon it was over 100 µM; with SR leukemia, over 100 µM; with SNB-19 CNS it was 89.2 µM. The TGI with KM12 colon is over 100 µM.

With `CC(C)NC(=O)OCc1c2c(n(C)c1COC(=O)NC(C)C)-c1ccccc1CC2`, the TGI with SK-OV-3 ovarian was 42.6 µM; with K-562 leukemia, over 38.5 µM; in the assay on NCI-H522 lung, 18.1 µM; in the assay on SF-295 CNS, 30.2 µM; in the assay on SK-MEL-5 melanoma it was 29.1 µM; with HCC-2998 colon, 26.3 µM. Besides, the TGI in the assay on EKVX NSCLC was found to be 33.6 µM; in the assay on MOLT-4 leukemia it was 8.95 µM; in the assay with OVCAR-3 ovarian, 27.3 µM; in the assay on HCT-15 colon it was 27.2 µM; in the assay with SNB-19 CNS it was 35.2 µM; in the assay with KM12 colon it was 29 µM.

`c1ccc([I+]c2ccccc2)cc1`: the TGI with SK-OV-3 ovarian, in the assay on K-562 leukemia, with NCI-H522 lung, with SF-295 CNS, in the assay with SK-MEL-5 melanoma and in the assay on HCC-2998 colon was over 100 µM each time. Also, the TGI in the assay with EKVX NSCLC, in the assay on MOLT-4 leukemia, with OVCAR-3 ovarian, in the assay with HCT-15 colon, in the assay on SR leukemia and in the assay with SNB-19 CNS was over 100 µM each time. Also, the TGI in the assay with KM12 colon is over 100 µM.

As to `CC1=CC2c3cccc4[nH]cc(c34)CC2N(C)C1` (stereo not drawn), the TGI in the assay on SK-OV-3 ovarian was over 100 µM; in the assay on K-562 leukemia, over 100 µM; in the assay on NCI-H522 lung, over 100 µM; with SF-295 CNS, over 100 µM; in the assay with SK-MEL-5 melanoma, over 100 µM; in the assay with HCC-2998 colon, 86 µM. The TGI in the assay on EKVX NSCLC, with MOLT-4 leukemia, in the assay on OVCAR-3 ovarian, in the assay on HCT-15 colon, in the assay with SNB-19 CNS and with KM12 colon was over 100 µM in each case.

As to `CC(Cl)CC(=O)OCC1CCCN2CCCCC12` (stereo not drawn), the TGI with SK-OV-3 ovarian, in the assay with K-562 leukemia, in the assay on SF-295 CNS, in the assay on SK-MEL-5 melanoma, in the assay on HCC-2998 colon and in the assay on EKVX NSCLC was over 100 µM each time. Besides, the TGI in the assay on MOLT-4 leukemia, in the assay on OVCAR-3 ovarian, in the assay on HCT-15 colon, in the assay on SNB-19 CNS and with KM12 colon was over 100 µM throughout.

Take `Cc1ccc2c(=O)c3ccccc3sc2c1`: the TGI in the assay on SK-OV-3 ovarian, in the assay with K-562 leukemia, in the assay with NCI-H522 lung, in the assay on SK-MEL-5 melanoma, with HCC-2998 colon and in the assay on EKVX NSCLC was over 100 µM throughout. The TGI in the assay with MOLT-4 leukemia, with OVCAR-3 ovarian, in the assay with SR leukemia, in the assay on SNB-19 CNS and in the assay on KM12 colon was over 100 µM each time.
